US7390826B2, “Inhibitors of animal cell motility and growth” (The Board of Trustees of The University of Illinois, priority 2002, dated 2008)
Read-outs that look alike come from different tables or passages of the source.

Test system: Xenopus laevis embryos
Experiment: frog embryo morphogenesis assay (scoring of developmental defects)
Assay type: in vivo
Settings: for EC50: Xenopus laevis, 72 h
Text: In order to identify compounds that specifically perturb morphogenesis in the frog embryo, a suitable method for scoring embryos by characteristic defects was developed. A useful starting point was the “dorso-anterior index” (DAI). The DAI originally was constructed by adding new morphological characteristics to the older “index of axis deficiency” (S. R. Scharf et al., Dev. Biol., 99, 75-87 (1983)). The DAI is a scale of dorsoanterior development wherein embryos are assigned a score based on degree of dorsoanterior phenotype (K. R. Kao et al., Dev. Biol., 127, 64-77 (1988)). The scale encompasses a score of 0 (for the most axis-deficient or ventralized embryos) to 10 (for embryos with the most enhanced dorsoanterior structures), with a score of 5 signifying a normal embryo.
Because the DAI focuses only on dorsoanterior phenotypes, other categories were added to describe possible defects more comprehensively, with an emphasis on characteristics that are easily and unambiguously recognized in intact embryos, and that are diagnostic of possible effects on morphogenesis during gastrulation and neurulation. The most useful and readily scored categories that covered the most frequent deficiencies were: reduced anterior structures and microcephaly, delayed appearance or absence of eye pigmentation, overall shortness along the anteroposterior axis, bent axis, bent tail only, reduced posterior structures/tail, malformed or reduced fins, delayed or failed neural tube closure (neural fold fusion), abnormal pigmentation pattern, ventral swelling (edema), and delayed or abnormal visceral organogenesis and yolk resorption. In addition, blastopore closure, an earlier process that marks the completion of gastrulation, was observed.
In these tests, test compounds were added individually to wells each containing 4-8 embryos in 12-well plates. Embryos at stage 8.5-9, according to the classification of Nieuwkoop and Faber (P. I. Nieuwkoop et al., Normal Table of Xenopus laevis (Daudin). Amsterdam: North-Holland Publ.) (1967)), were used because these are late blastula stages before gastrulation begins at stage 10, which allowed focusing primarily on compounds that affect morphogenetic events in gastrulation and neurulation. These embryos, therefore, have undergone a midblastula transition at stage 8 (cleavage division 12) when zygotic transcription begins (J. Newport et al., Cell, 30, 675-686 (1982); J. Newport et al., Cell, 30, 687-696 (1982)) but have not yet started the morphogenetic movements of gastrulation.
Standard procedures were used in the care of animals, gamete preparation, fertilization of oocytes, and culture of embryos (B. K. Kay et al., Methods in Cell Biology, Volumn 36 (San Diego: Academic Press, Inc.) (1991)). In order to stimulate ovulation, female frogs were injected with 500 units of human chorionic gonadotropin (HCG). Eggs were squeezed from female frogs 12 hours later. Testes were removed from euthanized male frogs that had been primed with 50 units of HCG 4-6 hours earlier. The testes were stored at 4° C. in single strength Marc's Modified Ringer's solution with 50 μg/ml gentamycin and used for no more than 10 days. Small pieces of testes were macerated and spread over eggs for in vitro fertilization in Petri dishes. Fertilized eggs were placed in one-tenth strength Modified Barth's Saline (MBS) with 50 μg/ml gentamycin at constant temperature (19° C.) in a temperature-controlled incubator and development allowed to proceed under these conditions. Embryos were dejellied by briefly swirling them in a solution of 2% (w/v) L-cysteine, pH 8.0. The embryos then were rinsed extensively with one-tenth strength MBS to wash out the cysteine. Experiments were started within an hour of dejellying the embryos.
Experiments were carried out in 12-well flat-bottom polystyrene plates with 4-8 embryos per well in 1.0 ml of one-tenth strength MBS with 50 μg/ml gentamycin at 19° C. […]

SMILES: C/C=C/C(=O)N1C(=O)OC[C@@H]1Cc1ccccc1 [Compound 1, (4S)-3-((E)-2-butenoyl)-4-benzyl-2-oxazolidinone]
- reduction in the length of the tail (15 μM added at 2-cell stage): evident
- effects on anteroposterior elongation, head and eye development, visceral organogenesis and yolk resorption (15 μM added at 2-cell stage, 48 hours): significant effects
- anteroposterior length, head development, eye pigmentation, visceral organogenesis and yolk resorption versus control embryos (15 μM added at stage 8.5-9, 48, 72 or 96 hours after treatment, Student's t-test): significantly different
- exposure before washing out with no significant effect on later development (15 μM, stage 8.5-9 embryos): up to 9 hours
- exposure resulting in significant defects in postneurula analyses (15 μM, stage 8.5-9 embryos): ≥ 12 h
- EC50 (read-out: EC50 with respect to the defective phenotype at 72 hr following treatment): 13.9 µM
- EC50 (read-out: log EC50+standard error of log EC50 (converted)): 13.9 µM
- concentration lethal to the embryos (frog embryos): 2 to 3 times the EC50
- blastopore closure in gastrulating embryos (treatment at stage 8.5-9 or 2-cell stage): delayed
